# In US20100254940A1, “Compositions and Methods for Regulating an Immune Response in a Subject” (INNATE PHARMA, S.A., priority 2002, published 2010):
# Where “and” joins values, the source holds several entries; their conditions need not be identical. Equal entries are not always repeated.
# Tests used:
# γδ T cell = test: In vitro TNFα release assay, γδ T cell amplification from human PBMCs (in the presence of rhIL2); format: cell-based; settings: TNFα release assay; human PBMCs, rhIL2
# Description: The in vitro biological activity of γδ T cell amplification from human PBMCs (in the presence of rhIL2) was assessed using a TNFα release assay.
# Cytokine secretion and cytolytic activity can be assessed using any appropriate in vitro assay, or those provided in the examples herein. For example, cytokine secretion can be determined according to the methods described in Espinosa et al. (J. Biol. Chem., 2001, Vol. 276, Issue 21, 18337-18344), describing measurement of TNF-α release in a bioassay using TNF-α-sensitive cells. Briefly, 10^4 γδT cells/well were incubated with stimulus plus 25 units of IL2/well in 100 μl of culture medium during 24 h at 37° C. Then, 50 μl of supernatant were added to 50 μl of WEHI cells plated at 3×10^4 cells/well in culture medium plus actinomycin D (2 μg/ml) and LiCl (40 mM) and incubated for 20 h at 37° C. Viability of the TNF-α-sensitive cells and measured with a 3-(4,5-dimethylthiazol-2-yl)-2,5-diphenyltetrazolium bromide assay. 50 μl of 3-(4,5-dimethylthiazol-2-yl)-2,5-diphenyltetrazolium bromide (Sigma; 2.5 mg/ml in phosphate-buffered saline) per well were added, and after 4 h of incubation at 37° C., 50 μl of solubilization buffer (20% SDS, 66% dimethyl formamide, pH 4.7) were added, and absorbance (570 nm) was measured. Levels of TNF-α release were then calculated from a standard curve obtained using purified human rTNF-α (PeproTech, Inc., Rocky Hill, N.J.). Interferon-γ released by activated T cells was measured by a sandwich enzyme-linked immunosorbent assay. 5×10^4 γδT cells/well were incubated with stimulus plus 25 units of IL2/well in 100 μl of culture medium during 24 h at 37° C. Then, 50 μl of supernatant were harvested for enzyme-linked immunosorbent assay using mouse monoclonal antibodies (BIOSOURCE, Camarillo, Calif.). […]
# BrHPP and HDMAPP bioactivity were compared using in vitro and in vivo assays. The in vitro biological activity of γδ T cell amplification from human PBMCs (in the presence of rhIL2) was assessed using a TNFα release assay.
# Vg9Vd2 T cells = test: Peripheral Vg9Vd2 T cell expansion in cynomolgus monkeys by flow cytometry (BrHPP non-GLP studies); format: in vivo, cynomolgus monkeys (M. fascicularis); settings: for Absolute increase of Vg9Vd2: individual animals
# Description: • Group 1: 5 purpose bred healthy male cynomolgus monkeys (M. fascicularis), supplied by C.R.P. Le Vallon, Ferney S.E., Mahebourg, Mauritius. At the beginning of the study, body weights range from 3.7 to 4.6 kg. • Group 2: 10 purpose bred healthy cynomolgus monkeys (5 males and 5 females), supplied by C.R.P. Le Vallon. At the beginning of the study, body weights range from 1.8 to 3.5 kg and ages from 2 to 3 years.
# • Group 1: animals were anaesthetised with intra-muscular injection of 6 mg/kg ZoletilND 100 (Tiletamine-Zolazepam, Virbac, Carros, France) before any injection or blood taking. • Group 2: injections and blood taking were performed on manually restrained non-anaesthetised animals. • 4-day BrHPP alone treatment (group 1): 2 animals received 1 mg/kg of BrHPP in 10 ml saline on day 0 (microflex infusion set introduced into the external saphenous vein) and then 4 mg/kg, 16 mg/kg and 32 mg/kg in 20 ml saline on days 1, 2 and 3 by the same way. (Duration of infusion: 10 to 15 min). • BrHPP/IL2 co-treatments (group 1): 5 animals received either 20 mg/kg once or 4 mg/kg (16.7 mg/kg or 3.3 mg/kg of BrHPP anionic form) 5 times daily of BrHPP in final 50 ml saline by the same way as above (duration of infusion: 30 min). IL2 (18 million UI per vial, Proleukin®, Chiron, US) was resuspended in 1 ml sterile water and diluted to 10 ml with 4% HSA for a final concentration of 1.8 million UI/ml. In a first cycle of treatment, all animals received the same dose of IL2 consisting of 5 days of twice daily injections of 0.9 million units IL2. In a second cycle of treatment, animals received subcutaneously the following IL2 treatment: 0.15 million units twice daily for 9 days (animal Z059), 0.3 million units twice daily for 5 days (Z135), 0.9 million units twice daily for 5 days (animal Z714) or 9 days (animal X973).
# A single animal received 80 mg/kg (66.6 mg/kg anionic form) BrHPP+9 days of IL2 co-treatment consisting of a single daily subcutaneous injection of 0.6 million units. • BrHPP/IL2 co-treatments (group 2): BrHPP was diluted in saline to the appropriate final concentration (depending on the dose to inject and on the last recorded body weight) so as to inject always approximately 50 ml in 30 min (microflex infusion set introduced into cephalic or external saphenous vein). All animals received 0.6 million IU IL2 per day for 7 days. IL2 was administered subcutaneously as 2 separate injections of 0.3 million IU IL2 in sterile water, 8-hour apart. Control animals received IL2 only.
# Twice weekly blood samples (1 to 4 ml) were withdrawn from femoral vessels/artery into EDTA containing tubes. Tubes were shipped overnight at room temperature (RT) before flow cytometry analyses.
# Peripheral γδ lymphocytes were analysed twice weekly by flow cytometry on total monkey blood, after double staining with anti-CD3-PE antibody and anti-Vgamma9-FITC antibodies and/or anti Vd2 antibodies (CD3-PE: SP34 clone, BD Biosciences Pharmingen, Le Pont de Claix, France). Anti Vgamma 9, clone 7B6 is a monoclonal raised to human Vgamma 9 but that cross-reacts with cynomolgus cells. It was purified by affinity chromatography on protein A and coupled to FITC as previously described.
# Briefly, 50 μl monkey blood is incubated 15 min at RT with 5 μl anti-CD3-PE and 6 μl anti-delta2-FITC or 10 μl anti-gamma9-FITC antibodies. Antibodies are washed with 3 ml 1×PBS, centrifuged for 4 min at 1300 rpm at RT and supernatant is discarded. Red cells are lysed with the OptiLyse C reagent (Immunotech-Beckman-Coulter, Marseilles, France) according to the manufacturer's instructions. At the final step, stained white blood cells are recovered by centrifugation and resuspended in 300 μl PBS+0.2% PFA.
# [1] = highest concentration (160 mg/kg), second injection + IL2
substance,measurement,setting,value
3-(bromomethyl)-3-butanol-1-yl-diphosphate [BrHPP],EC50,γδ T cell,~30 nM
same,% and absolute numbers of Vg9Vd2,Vg9Vd2 T cells; 0.2 mg/kg + IL2 7 days,undistinguishable from the control animals
same,peak of increase in peripheral γδ cells,"Vg9Vd2 T cells; 20 mg/kg once or 4 mg/kg x 5 + IL2, group 1",7 days
same,% and absolute numbers of Vg9Vd2,"Vg9Vd2 T cells; 4 to 80 mg/kg + IL2, day 7",A dose range effect was observed
same,expansion at recall,"Vg9Vd2 T cells; first 20 mg, then 80 mg",expansions comparable to animals treated with 80 mg/kg at the first injection
same,expansion at recall,"Vg9Vd2 T cells; first 80 mg/kg, then 20 mg/kg, vs first injection at 20 mg/kg",decreased expansion
same,% of Vg9Vd2,"Vg9Vd2 T cells; five daily injection of 0.2 mg/kg BrHPP alone, 4 monkeys",expansion was not significant
same,Follow up of Vg9Vd2,"Vg9Vd2 T cells; four daily injections 1, 4, 16, 32 mg/kg BrHPP alone, two animals",a decrease at day two post first injection
same,increase of Vg9Vd2,"Vg9Vd2 T cells; fourth injection of 80 mg/kg BrHPP and IL2, five animals",detectable increase of Vg9Vd2 although lower than that obtained in the third injection
same,absolute numbers of Vg9Vd2 (mean),Vg9Vd2 T cells; [1],"10,000 Vg9Vd2 cells/mm3"
same,level of circulating Vg9Vd2 among circulating CD3 positive cells,Vg9Vd2 T cells; [1],about 80%
same,Absolute increase of Vg9Vd2,"Vg9Vd2 T cells; same dose split in 5 daily injections of 4 mg/kg + IL2 5 days, 4 mg/kg",8 × and 18 ×
same,amplification rate at the second injection vs first,"Vg9Vd2 T cells; second single shot 20 mg/kg + IL2, animals with 5 daily 4 mg/kg at first injection",slightly higher amplification rate
same,amplification rate in the second injection vs first,"Vg9Vd2 T cells; second single shot 20 mg/kg + IL2, animals with single shot at first injection",slightly reduced amplification rate
same,Absolute increase of Vg9Vd2,"Vg9Vd2 T cells; single dose 20 mg/kg + IL2 5 days, 20 mg/kg",30 × and 40 ×
same,increase of Vγ9Vδ2,"Vg9Vd2 T cells; third cycle 80 mg/kg + IL2, control animal which received only IL2 in first two courses",around 40
same,increase of Vγ9Vδ2 at the third injection,"Vg9Vd2 T cells; third injection 80 mg/kg + IL2, animal 2034",28 ×
same,amplification of Vγ9Vδ2,"Vg9Vd2 T cells; third injection 80 mg/kg + IL2, three other animals",lower than 40
same,mean increase of peripheral γδ cell number,"Vg9Vd2 T cells; total amount of 20 mg/kg BrHPP + IL2, day 7",24 fold
